Test results taken from patent publication US7642364B2, “Benzopyrone compounds, preparation method and use thereof” (Shenyang Research Institute of Chemical Industry, priority 2003, dated 2010).

Legend:
cucumber downy mildew = assay: Fungicidal activity on potted plants, cucumber downy mildew; type: in vivo; details: for control(%) fungicidal activity against cucumber downy mildew: 50 ppm; for control against cucumber downy mildew: 200 ppm, spray on potted plant
cucumber grey mold = assay: Fungicidal activity on potted plants, cucumber grey mold; type: in vivo; details: 200 ppm
culex mosquitoes = assay: Insecticidal/acaricidal activity, culex mosquitoes; type: in vivo; details: 10 ppm
grape downy mildew = assay: Fungicidal activity on potted plants, grape downy mildew; type: in vivo; details: 200 ppm
wheat leaf rust = assay: Fungicidal activity on potted plants, wheat leaf rust; type: in vivo; details: 200 ppm
wheat leaf blotch = assay: Fungicidal activity on potted plants, wheat leaf blotch; type: in vivo; details: 200 ppm
tomato late blight = type: in vivo; details: 200 ppm
Mexican lady beetle = assay: Insecticidal/acaricidal activity, Mexican lady beetle; type: in vivo; details: 300 ppm
Method: Numerous insect larvae were put into containers then were fed with treated corn leaves. Potter's spraying tower was used as the sprayer and spraying volume was 1 mL. The spraying pressure was 13.5 lb/in^2.

two-spotted spider mite = assay: Insecticidal/acaricidal activity, two-spotted spider mite; type: in vivo; details: 300 ppm
[1] = tested on: tomato early stage blight; assay: Fungicidal activity on potted plants, tomato early stage blight; type: in vivo; details: 200 ppm
wheat powdery mildew = assay: Fungicidal activity on potted plants, wheat powdery mildew; type: in vivo; details: 200 ppm
[2] = Biological evaluation of compound JP51 after synthesis; details: after synthesis and the biological evaluation
Text: Biological active data of the compound in JP04-182461 have not been disclosed.

Row | SMILES | control(%) fungicidal activity against cucumber downy mildew (cucumber downy mildew) | control against cucumber downy mildew (cucumber downy mildew) | also measured
1 | COC=C(C(=O)OC)c1ccccc1COc1ccc2ccc(=O)oc2c1 [Compound 1] | 100% | 100% | –
2 | COC=C(C(=O)OC)c1ccccc1COc1ccc2c(C)cc(=O)oc2c1 [Compound 2] | 100% | 100% | control against cucumber grey mold (cucumber grey mold): 100%; control of culex mosquitoes (culex mosquitoes): 100%
3 | COC=C(C(=O)OC)c1ccccc1COc1ccc2c(-c3ccccc3)cc(=O)oc2c1C [Compound 4] | – | 100% | –
4 | COC=C(C(=O)OC)c1ccccc1COc1ccc2c(C)c(C)c(=O)oc2c1 [Compound 5] | 100% | 100% | control of culex mosquitoes (culex mosquitoes): 100%
5 | COC=C(C(=O)OC)c1ccccc1COc1ccc2c(C)c(C)c(=O)oc2c1C [Compound 6] | 100% | 100% | control against cucumber grey mold (cucumber grey mold): 100%; control against grape downy mildew (grape downy mildew): 100%; control against wheat leaf rust (wheat leaf rust): 100%; control against wheat leaf blotch (wheat leaf blotch): > 90%; control against tomato late blight (tomato late blight): > 95%; control of culex mosquitoes (culex mosquitoes): 100%
6 | COC=C(C(=O)OC)c1ccccc1COc1ccc2c(C(F)(F)F)cc(=O)oc2c1 [Compound 7] | – | – | control against grape downy mildew (grape downy mildew): 100%; control of Mexican lady beetle (Mexican lady beetle): 100%; control of two-spotted spider mite (two-spotted spider mite): > 50%
7 | COC=C(C(=O)OC)c1ccccc1COc1cc2oc(=O)cc(C)c2cc1C(C)=NOC [Compound 9] | – | – | control of Mexican lady beetle (Mexican lady beetle): 100%
8 | COC=C(C(=O)OC)c1ccccc1COc1cc2oc(=O)cc(C)c2cc1C(C)=O [Compound 10] | – | – | control against grape downy mildew (grape downy mildew): 100%; control against tomato late blight (tomato late blight): > 75%; control of Mexican lady beetle (Mexican lady beetle): 100%
9 | COC=C(C(=O)OC)c1ccccc1COc1ccc2c(C)cc(=O)oc2c1C(C)=O [Compound 11] | – | – | control against tomato early stage blight [1]: > 75%
10 | COC=C(C(=O)OC)c1ccccc1COc1ccc2c(C)c(Cl)c(=O)oc2c1 [Compound 12] | 100% | 100% | –
11 | CCc1c(C)c2ccc(OCc3ccccc3C(=COC)C(=O)OC)cc2oc1=O [Compound 18] | – | 100% | control against cucumber grey mold (cucumber grey mold): 100%
12 | COC=C(C(=O)OC)c1ccccc1COc1ccc2c(COC)cc(=O)oc2c1 [Compound 19] | – | 100% | –
13 | COC=C(C(=O)OC)c1ccccc1COc1ccc2c(C)c(Cl)c(=O)oc2c1C [Compound 25] | – | 100% | –
14 | COC=C(C(=O)OC)c1ccccc1COc1ccc2c(C(C)C)cc(=O)oc2c1 [Compound 26] | 100% | 100% | –
15 | CCc1cc(=O)oc2cc(OCc3ccccc3C(=COC)C(=O)OC)ccc12 [Compound 33] | – | 100% | –
16 | CCCc1cc(=O)oc2cc(OCc3ccccc3C(=COC)C(=O)OC)ccc12 [Compound 34] | – | 100% | –
17 | CCCc1cc(=O)oc2c(C)c(OCc3ccccc3C(=COC)C(=O)OC)ccc12 [Compound 35] | – | 100% | –

Row | SMILES | control(%) fungicidal activity against cucumber downy mildew (cucumber downy mildew) | control against cucumber downy mildew (cucumber downy mildew) | also measured
18 | CCCc1c(C)c(=O)oc2cc(OCc3ccccc3C(=COC)C(=O)OC)ccc12 [Compound 37] | 100% | 100% | –
19 | COC=C(C(=O)OC)c1ccccc1COc1ccc2c(C)c(F)c(=O)oc2c1 [Compound 50] | – | 100% | control against cucumber grey mold (cucumber grey mold): 100%
20 | COC=C(C(=O)OC)c1ccccc1COc1ccc2c(-c3ccccc3)cc(=O)oc2c1 [Compound 52] | 100% | 100% | –
21 | COC=C(C(=O)OC)c1ccccc1COc1ccc2c(-c3ccc(OC)c(OC)c3)cc(=O)oc2c1 [Compound 58] | – | 100% | control against cucumber grey mold (cucumber grey mold): 100%
22 | COC=C(C(=O)OC)c1ccccc1COc1ccc2c(C)c(Cc3ccccc3)c(=O)oc2c1C [Compound 69] | – | 100% | –
23 | CON=C(C(=O)OC)c1ccccc1COc1ccc2c(C)c(Cl)c(=O)oc2c1 [Compound 100] | – | – | control against cucumber grey mold (cucumber grey mold): 100%
24 | CON=C(C(=O)OC)c1ccccc1COc1ccc2c(C)c(Cl)c(=O)oc2c1C [Compound 109] | – | 100% | –
25 | CON=C(C(=O)OC)c1ccccc1COc1cc2oc(=O)cc(-c3cccc(C(F)(F)F)c3)c2cc1C(C)=O [Compound 141] | 100% | – | –
26 | CCCCc1c(C)c2ccc(OCc3ccccc3C(=COC)C(=O)OC)cc2oc1=O [Compound 402] | 100% | 100% | control against cucumber grey mold (cucumber grey mold): 100%; control against wheat powdery mildew (wheat powdery mildew): 100%
27 | CCCCCCc1c(C)c2ccc(OCc3ccccc3C(=COC)C(=O)OC)cc2oc1=O [Compound 405] | 100% | 100% | –
28 | CCCc1c(CCC)c2ccc(OCc3ccccc3C(=COC)C(=O)OC)cc2oc1=O [Compound 409] | 100% | 100% | –
29 | CCCc1c(Cl)c(=O)oc2cc(OCc3ccccc3C(=NOC)C(=O)OC)ccc12 [Compound 410] | – | 100% | –
30 | CCCc1c(C)c2ccc(OCc3ccccc3C(=NOC)C(=O)OC)cc2oc1=O [Compound 412] | – | – | control against wheat powdery mildew (wheat powdery mildew): 100%
31 | CCCCc1c(C)c2ccc(OCc3ccccc3C(=NOC)C(=O)OC)cc2oc1=O [Compound 413] | – | 100% | control against wheat powdery mildew (wheat powdery mildew): 100%
32 | CCCCCCc1c(C)c2ccc(OCc3ccccc3C(=NOC)C(=O)OC)cc2oc1=O [Compound 414] | – | 100% | –
33 | CNC(=O)/C(=N/OC)c1ccccc1COc1ccc2ccc(=O)oc2c1 [JP51, reference compound] | 20% | – | biological activity (general statement) [2]: low biological active
